# Patent US5116816A, “Cyclosporin peptolides having an α-hydroxycarboxylic acid at position 8” (Sandoz Ltd., priority 1987, dated 1992)
# Test system: UV erythema
# Experiment: UV Erythema test
# Format: in vivo, guinea pigs
# Details: topical solution, erythema estimated four hours after application
# Method: The test is carried out on female albino guinea pigs, approx. 150 g wt. The animals are shaved on both flanks using a Braun micro razor, without causing skin irritation. For each test substance five animals are subjected to a defined intensity of UV radiation for 10 seconds on each of four areas of skin (10 mm diameter). Immediately afterwards 50 microliters of a solution of the test substance in ethanol/propylene glycol/dimethylacetamide (19:19:2 v/v) is applied to two of the irradiated areas on each animal and 50 microliters of the solvent mixture to the other two as controls. Four hours after application, the degree of erythema is estimated visually.
smiles,measurement,value
COc1ccc2c(c1)c(CC(=O)O)c(C)n2C(=O)c1ccc(Cl)cc1 [indomethacin],effective concentration in UV-erythema test,2.5%
